These results are taken from patent US12448433B2, “Human ApoB100 epitopes, methods and uses for modulating inflammatory responses, and treating adverse cardiovascular events, disease and atherosclerosis” (LA JOLLA INSTITUTE FOR ALLERGY AND IMMUNOLOGY, priority 2015, dated 2025).

One assay has as its target T1, DPB1*04:01 (Homo sapiens, UniProt P04440).
T1 sequence (P04440 30-258): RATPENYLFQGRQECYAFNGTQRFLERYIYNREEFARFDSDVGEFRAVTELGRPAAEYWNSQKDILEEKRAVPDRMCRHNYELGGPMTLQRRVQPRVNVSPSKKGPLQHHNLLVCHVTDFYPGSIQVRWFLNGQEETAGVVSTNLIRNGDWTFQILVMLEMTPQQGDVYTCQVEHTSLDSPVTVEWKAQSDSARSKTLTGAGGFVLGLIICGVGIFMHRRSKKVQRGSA
T1 sequence (P20036 29-260 partner): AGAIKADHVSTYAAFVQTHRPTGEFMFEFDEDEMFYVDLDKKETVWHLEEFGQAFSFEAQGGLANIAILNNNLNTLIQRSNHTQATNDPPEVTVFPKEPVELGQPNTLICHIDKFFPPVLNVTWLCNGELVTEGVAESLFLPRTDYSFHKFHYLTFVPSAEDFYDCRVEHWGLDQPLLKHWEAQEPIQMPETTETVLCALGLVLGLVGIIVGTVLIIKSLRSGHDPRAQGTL
Kind of assay: Peptide binding to HLA-DP allele, competition assay. The text has this:
(§1) Peptide binding to MHC-II requires anchor residues in certain positions and thus can be predicted using computer algorithms. Affinity can be measured experimentally using a competition assay (1). Both are excellent screening tools. However, affinity must be measured separately for each MHC-II allele. Humans express molecules encoded in four different MHC-II loci, denominated HLA-DRB1, DRB3/4/5, DP and DQ. Allelic variation is large, and most people are heterozygous at each locus, thus expressing up to 8 relevant MHC-II alleles. CD4 T cell responses strictly require that the antigenic peptide binds to the relevant MHC-II.
(§2) To identify peptides that could potentially be used in human patients, 30 peptides were screened for binding to 26 HLA alleles by competition assay.

Another assay deals with DQB1*06:02. Kind of assay: Peptide binding to HLA-DQ allele, competition assay. Details: species or system human.
Source text: as §1, §2

The target in the next assay is DQB1*05:01. Described as above. Details: species or system human.
Source text: as §1, §2

In the next assay the target is DPB1*04:02. Kind of assay: Peptide binding to HLA-DP allele, competition assay. Details: species or system human.
Source text: as §1, §2

The next assay concerns the target DPB1*02:01. The description is as above. Details: species or system human.
Source text: as §1, §2

A further assay deals with DPB1*05:01. The description is as above. Set-up: species or system human.
Source text: as §1, §2

The next assay deals with DPB1*14:01. The description is as above. Details: species or system human.
Source text: as §1, §2

The target of another assay is DRB4*01:01 (Homo sapiens, UniProt P01903+P13762, G164S). Description: Peptide binding to HLA-DR allele, competition assay.
Source text: as §1, §2

In the case of `CC[C@H](C)[C@H](NC(=O)[C@H](CC(=O)O)NC(=O)[C@H](CC(C)C)NC(=O)[C@H](CC(C)C)NC(=O)[C@H](CCC(=O)O)NC(=O)[C@@H](N)CCC(N)=O)C(=O)N[C@@H](C)C(=O)N[C@@H](CC(N)=O)C(=O)N[C@@H](Cc1ccc(O)cc1)C(=O)N[C@@H](CC(C)C)C(=O)N[C@@H](CCSC)C(=O)N[C@@H](CCC(=O)O)C(=O)N[C@@H](CCC(N)=O)C(=O)N[C@H](C(=O)N[C@@H](CCC(N)=O)C(=O)O)[C@@H](C)CC` [Peptide 3563.0003], the IC50 turned out to be 2580 nM on DPB1*04:01; 2430 nM on DQB1*06:02; 4 nM on DQB1*05:01; 182 nM on DPB1*04:02; 1780 nM on DPB1*02:01.
Regarding `CC[C@H](C)[C@H](NC(=O)[C@H](CC(C)C)NC(=O)[C@H](CC(N)=O)NC(=O)[C@@H](NC(=O)[C@@H](NC(=O)[C@H](Cc1ccccc1)NC(=O)[C@H](Cc1c[nH]cn1)NC(=O)[C@H](CCCCN)NC(=O)[C@@H](NC(=O)[C@@H](N)Cc1c[nH]cn1)C(C)C)C(C)C)[C@@H](C)CC)C(=O)NCC(=O)N[C@@H](CC(=O)O)C(=O)N[C@@H](Cc1ccccc1)C(=O)N[C@@H](CCC(=O)O)C(=O)N[C@H](C(=O)O)C(C)C` [Peptide 3563.0014], the IC50 on DPB1*04:01 is 7 nM; on DQB1*06:02, 13600 nM; at DQB1*05:01, 3.7 nM; at DPB1*05:01, 818 nM; on DPB1*04:02, 148 nM; at DPB1*14:01, 12200 nM. At DPB1*02:01, the IC50 worked out at 58 nM.
On to `CC[C@H](C)[C@H](NC(=O)[C@@H](NC(=O)[C@@H](N)CC(C)C)[C@@H](C)CC)C(=O)N[C@@H](CC(N)=O)C(=O)N[C@@H](Cc1c[nH]c2ccccc12)C(=O)N[C@@H](CC(C)C)C(=O)N[C@@H](CCC(N)=O)C(=O)N[C@@H](CCC(=O)O)C(=O)N[C@@H](C)C(=O)N[C@@H](CC(C)C)C(=O)N[C@@H](CO)C(=O)N[C@@H](CO)C(=O)N[C@@H](C)C(=O)N[C@@H](CO)C(=O)N[C@@H](CC(C)C)C(=O)O` [Peptide 3563.0015], for which the IC50 turned out to be 12 nM on DRB4*01:01; 6190 nM at DPB1*04:01; 1950 nM on DQB1*06:02; 2050 nM on DPB1*04:02; 9550 nM on DPB1*14:01; 16300 nM on DPB1*02:01.
With `CC[C@H](C)[C@H](NC(=O)[C@H](CO)NC(=O)[C@H](Cc1ccc(O)cc1)NC(=O)[C@H](CC(C)C)NC(=O)[C@H](CCCCN)NC(=O)CN)C(=O)N[C@@H](CC(C)C)C(=O)N[C@@H](CCCCN)C(=O)N[C@H](C(=O)N[C@@H](CCC(N)=O)C(=O)N[C@@H](CO)C(=O)N1CCC[C@H]1C(=O)N[C@@H](CC(C)C)C(=O)N[C@@H](Cc1ccccc1)C(=O)N[C@H](C(=O)O)[C@@H](C)O)[C@@H](C)CC` [Peptide 3563.0016], the IC50 worked out at 2100 nM at DPB1*04:01; 6000 nM on DQB1*05:01; 2380 nM on DPB1*05:01; 419 nM at DPB1*04:02; 7020 nM on DPB1*14:01; 9070 nM on DPB1*02:01.
As for `CC[C@H](C)[C@H](NC(=O)[C@H](CC(C)C)NC(=O)[C@@H](N)Cc1ccccc1)C(=O)N[C@@H](Cc1ccc(O)cc1)C(=O)N[C@H](C(=O)N[C@H](C(=O)N[C@@H](CCC(=O)O)C(=O)N[C@@H](CC(C)C)C(=O)N[C@@H](CC(C)C)C(=O)N[C@@H](CCCCN)C(=O)N[C@@H](CCCCN)C(=O)N[C@@H](CC(C)C)C(=O)N[C@@H](CCC(N)=O)C(=O)N[C@@H](CO)C(=O)N[C@H](C(=O)O)[C@@H](C)O)[C@@H](C)O)[C@@H](C)CC` [Peptide 3563.0030], the IC50 on DPB1*04:01 was 215 nM; on DQB1*06:02, 5900 nM; at DQB1*05:01, 4760 nM; at DPB1*05:01, 32 nM; at DPB1*04:02, 8.6 nM; on DPB1*02:01 it was 96 nM.
